Test results published in US9649308B2, “Benzamide-containing compounds and their use in the treatment of pain” (H. Lundbeck A/S, priority 2012, dated 2017).

Each compound was assayed against human P2X7 receptor (Homo sapiens (Human), UniProt Q99572) (assay: P2X7 FLIPR antagonist assay (BzATP-stimulated, 293 HEK cells stably expressing P2X7 receptor)). Settings: Table 1, exemplified IC50 values; antagonist activity vs BzATP.
Format: cell-based
Protocol: This example illustrates representative assays for use in evaluating the test compounds for antagonist activity. Compounds of the present invention were tested in vitro for their ability to act as antagonists to the P2X7 receptor.
Cells were plated to cell density of approximately 15,000 cells/well in 384-well assay plates (50 μl/well) with 1.5% low serum media (DMEM, 1.5% BCS, 1% L-glut (2 mM), 1% P/S).
Cells were plated to cell density of approximately 15,000 cells/well in 384-well assay plates (50 μl/well) with 1.5% low serum media (DMEM, 1.5% FBS, 1% L-glut (2 mM), 10 mM HEPES, 1% P/S). Cells were plated 24 hours prior to assay. Cells expressing human, rat or mouse P2X7 receptor were assayed in the following manner.
Fluo-4 NW dye mix (Molecular Probes, Inc., Eugene, Oreg., USA) was prepared in buffer (see manufacturer's instructions). Cell plates were removed from the 37° C. incubator, the media discarded and then 30 μL of dye was added to each well. Plates were placed in the 37° C., non-CO2 incubator for 30 minutes and then room temperature for 30 minutes.
B) Agonist only mixture was prepared with BzATP at a single concentration in buffer (concentration determined by dose response).
Compound mixtures (A) were added to assay plates containing cells and placed at room temperature for 30 minutes, then BzATP (B) was added. Fluorescence was read using the Tetra FLIPR® (Molecular Devices, Inc., Sunnyvale, Calif., USA) and IC50 values were calculated by standard methods to determine antagonist activity.

Chain of human P2X7 receptor (Q99572 whole entry): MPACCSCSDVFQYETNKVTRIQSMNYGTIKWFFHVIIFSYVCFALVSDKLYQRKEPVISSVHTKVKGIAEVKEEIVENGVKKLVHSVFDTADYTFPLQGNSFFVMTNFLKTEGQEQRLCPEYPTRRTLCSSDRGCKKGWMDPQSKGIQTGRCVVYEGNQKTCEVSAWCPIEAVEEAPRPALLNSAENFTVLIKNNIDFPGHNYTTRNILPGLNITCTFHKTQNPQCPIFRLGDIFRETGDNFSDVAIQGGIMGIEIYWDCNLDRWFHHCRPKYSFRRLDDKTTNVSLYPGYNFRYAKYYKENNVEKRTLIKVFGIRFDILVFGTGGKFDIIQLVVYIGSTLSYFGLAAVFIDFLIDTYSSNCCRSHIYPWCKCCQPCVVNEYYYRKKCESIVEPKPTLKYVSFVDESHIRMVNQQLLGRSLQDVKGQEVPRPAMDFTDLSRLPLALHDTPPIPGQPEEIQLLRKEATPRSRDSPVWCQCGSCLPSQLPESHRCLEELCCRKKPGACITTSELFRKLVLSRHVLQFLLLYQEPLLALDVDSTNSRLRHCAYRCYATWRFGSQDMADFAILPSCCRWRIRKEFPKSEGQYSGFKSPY

| SMILES | IC50 |
| --- | --- |
| Cc1ncc(C(CNC(=O)c2cccc(Cl)c2Cl)C2CCC(F)(F)CC2)cn1 (single isomer, unassigned; (+)) [(+)2,3-dichloro-N-[2-(4,4-difluorocyclohexyl)-2-(2-methylpyr] [(+)2,3-dichloro-N-[2-(4,4-difluorocyclohexyl)-2-(2-methylpyrimidin-5-yl)ethyl]benzamide] | 8.4 nM |
| Cc1ncc(C(CNC(=O)c2cccc(Cl)c2Cl)C2CCC(F)(F)CC2)cn1 (single isomer, unassigned; (-)) [(−)2,3-dichloro-N-[2-(4,4-difluorocyclohexyl)-2-(2-methylpyr] [(−)2,3-dichloro-N-[2-(4,4-difluorocyclohexyl)-2-(2-methylpyrimidin-5-yl)ethyl]benzamide] | 16 nM |
| O=C(NCC(CC1CC1)c1ccc(C(F)F)nc1)c1cccc(Cl)c1Cl (single isomer, unassigned; (-)) [(−)2,3-dichloro-N-[3-cyclopropyl-2-[6-(difluoromethyl)-3-pyr] [(−)2,3-dichloro-N-[3-cyclopropyl-2-[6-(difluoromethyl)-3-pyridyl]propyl]benzamide] | 1.9 nM |
| Cc1ncc(C(CNC(=O)c2cccc(Cl)c2Cl)c2ccncc2)cn1 (stereo not shown) [2,3-dichloro-N-[2-(2-methylpyrimidin-5-yl)-2-(4-pyridyl)ethyl]benzamide] | 50 nM |
| Cc1ncc(C2(C(C)NC(=O)c3c(F)cccc3Cl)CCOCC2)cn1 (stereo not shown) [2-chloro-6-fluoro-N-[1-[4-(2-methylpyrimidin-5-yl)tetrahydropyran-4-yl]ethyl]benzamide] | 55 nM |
| Cc1ncc(C(CNC(=O)c2c(F)cccc2Cl)c2ccncc2)cn1 (stereo not shown) [2-chloro-6-fluoro-N-[2-(2-methylpyrimidin-5-yl)-2-(4-pyridyl)ethyl]benzamide] | 640 nM |
| O=C(NCC1(c2cnc(C(F)(F)F)nc2)CCOCC1)c1ccccc1Cl [2-chloro-N-[[4-[2-(trifluoromethyl)pyrimidin-5-yl]tetrahydropyran-4-yl]methyl]benzamide] | 4400 nM |
